Tests used:
human PSMA = test: IFNγ ELISPOT, breaking of immune tolerance in human PSMA transgenic mice; format: in vivo, mouse
Method: Eight-to-10 week-old transgenic mice were immunized using PMED method with various PSMA DNA constructs in a prime/boost/boost regimen, two weeks apart between each vaccination. Alternatively, mice were primed with adenovirus vectors encoding the PSMA antigen at 1×10^9 viral particles in 50 μl (PBS) by intramuscular injection. The adenovirus vector (pShuttle-CMV vector from Stratagene) was modified to contain NheI and BgIII restriction sites within the multiple cloning site. The DNA encoding human PSMA modified was then restriction digested with NheI and BgIII, ligated into this vector and sequence confirmed. The pShuttle human PSMA modified vector was then recombined with the pAdEasy-1 vector and virus was propagated according to the AdEasy system (Stratagene). Twenty-days later, they were boosted with PMED as described above. In each of the regimens used, antigen specific T cell response was measured 7 days after the last immunization in an interferon-gamma (IFNγ) ELISPOT assay. The ELISPOT assay is similar to the sandwich enzyme-linked immunosorbent assay (ELISA). Briefly, a capture antibody specific to IFNγ BD Bioscience, #51-2525kc) is coated onto a polyvinylidene fluoride (PVDF) membrane in a microplate overnight at 4° C. The plate is blocked with serum/protein to prevent nonspecific binding to the antibody. […]

[1] = system: hPSMA full-length protein; test: IFN-γ ELISPOT, hPSMA modified versus full-length DNA vaccine in Pasteur (HLA-A2/DR1) transgenic mice; format: in vivo, human
From the text: The immune responses induced by DNA vaccination using a construct encoding an immunogenic PSMA polypeptide (the “human PSMA modified antigen” or “hPSMA modified”) consisting 15-750 amino acids (aa) of the native human PSMA protein of SEQ ID NO: 1 were compared with those induced by the native human full-length PSMA protein (hPSMA full length). Groups of female C57BL/6 mice or female Pasteur (HLA-A2/DR1) transgenic mice were primed on day 0 and boosted on days 14, 28 by PMED administration with a 2 μg dose of a DNA vaccine encoding either hPSMA full-length or hPSMA modified protein. Mice were bled and sacrificed on day 35 (7 days after the third vaccination) and T cell immune responses against the hPSMA full-length protein were determined in splenocytes by IFN-γ ELISPOT assay. For C57BL/6 mice, single cell suspensions of 5×10^5 splenocytes from individual animals were plated per well with […] purified hPSMA protein, 5×10^4 TRAMP-C2 cells alone, or TRAMP-C2 cells expressing hPSMA or a PSMA-PSA-PSCA fusion protein. […] Responses in Pasteur mice were also determined using 10 μg/ml purified PSMA protein or 5×10^4 SK-Mel5 cells that had been transduced with Adenoviral vectors expressing a control protein (Ad-eGFP) or the full-length human PSMA protein (Ad-hPSMA). […] The number of IFN-γ SFC was counted by a CTL reader. […]

PSMA modified: membrane-bound polypeptide of amino acids 15-750 of human PSMA, SEQ ID NO: 9; tested as DNA construct
# of positive (human PSMA; Table 12, human PSMA transgenic mice with SFC>50 / mice tested): 2/10
PSMA transgenic mice able to mount a T cell response to human PSMA (human PSMA; human PSMA transgenic mice, SFC>50 positive): 20%
IFN-γ T cell immune responses to the HLA-A2-restricted CD8+ T cell epitopes ([1]; Example 7, FIG. 27A, day 35, difference between groups not significant): highest magnitude of IFN-γ T cell immune responses
IFN-γ SFC to the purified hPSMA protein ([1]; Example 7, FIG. 27B, day 35, versus hPSMA full-length vaccine): higher frequencies of IFN-γ SFC

Reference: patent US11110158B2, “Prostate-associated antigens and vaccine-based immunotherapy regimens” (Pfizer Inc., priority 2012, dated 2021)
